Laboratory results as given in patent US8822503B2, “2-pyridone compounds” (Taisho Pharmaceutical Co., Ltd, priority 2009, dated 2014).

The compounds below were run against T1, human liver GK (Homo sapiens, UniProt P35557) (assay: GK activation test). Conditions: test compound concentration needed to activate 50% of maximum activation ability; 4 mM 14C-labeled glucose, 2 mM ATP, room temperature, 20 minutes.
T1 construct: GST (glutathione S-transferase) (N); made in house; host or cells: E. coli
T1 sequence (P35557 1-466 isoform P35557-2): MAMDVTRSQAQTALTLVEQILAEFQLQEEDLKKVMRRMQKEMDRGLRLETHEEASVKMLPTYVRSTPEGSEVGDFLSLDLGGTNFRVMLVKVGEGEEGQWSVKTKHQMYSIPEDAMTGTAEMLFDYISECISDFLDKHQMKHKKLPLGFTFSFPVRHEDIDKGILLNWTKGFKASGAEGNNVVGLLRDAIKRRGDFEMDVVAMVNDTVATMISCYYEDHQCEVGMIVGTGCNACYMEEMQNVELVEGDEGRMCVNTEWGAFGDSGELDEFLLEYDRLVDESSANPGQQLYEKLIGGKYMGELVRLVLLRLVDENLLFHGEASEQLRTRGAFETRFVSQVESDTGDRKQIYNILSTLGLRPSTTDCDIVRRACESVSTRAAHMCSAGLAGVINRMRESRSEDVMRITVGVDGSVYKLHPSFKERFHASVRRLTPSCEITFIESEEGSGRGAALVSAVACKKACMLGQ
Assay type: biochemical
Method in brief: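 GST-tagged human liver GK from E. coli (0.24 μg/well) with 4 mM 14C-glucose, 2 mM ATP in Hepes-KOH pH 7.1, KCl, MgCl2, DTT, 1% DMSO, 20 min room temperature. Labeled glucose 6-phosphate captured on anion resin, eluted and counted. EC50 = concentration giving half of maximal activation.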

| EC50 [nM] | SMILES |
| --- | --- |
| 500 to 3000 | O=C1CC[C@H](/C=C(\c2ccc(CCCCO)cc2)c2ccc(Cl)c(=O)[nH]2)N1 [Example 4-26, 3-Chloro-6-{(E)-1-[4-(4-hydroxybutyl)phenyl]-2-[(2R)-5-oxopyrrolidin-2-yl]ethenyl}pyridin-2(1H)-one] |
| 10 to 500 | CCSc1ccc(/C(=C\[C@H]2CCC(=O)N2)c2ccc(Cl)c(=O)[nH]2)cc1Cl [Example 4-27, 3-Chloro-6-{(E)-1-[3-chloro-4-(ethylsulfanyl)phenyl]-2-[(2R)-5-oxopyrrolidin-2-yl]ethenyl}pyridin-2(1H)-one] |
| 500 to 3000 | CC(C)COCCc1ccc(/C(=C\[C@H]2CCC(=O)N2)c2ccc(Cl)c(=O)[nH]2)cc1 [Example 4-28, 3-Chloro-6-{(E)-1-{4-[2-(2-methylpropoxy)ethyl]phenyl}-2-[(2R)-5-oxopyrrolidin-2-yl]ethenyl}pyridin-2(1H)-one] |
| 500 to 3000 | CC(C)Cc1ccc(/C(=C\[C@H]2CCC(=O)N2)c2ccc(Cl)c(=O)[nH]2)cc1 [Example 4-29, 3-Chloro-6-{(E)-1-[4-(2-methylpropyl)phenyl]-2-[(2R)-5-oxopyrrolidin-2-yl]ethenyl}pyridin-2(1H)-one] |
| 500 to 3000 | O=C1CC[C@H](/C=C(\c2ccc(OC(F)(F)F)cc2)c2ccc(Cl)c(=O)[nH]2)N1 [Example 4-30, 3-Chloro-6-{(E)-2-[(2R)-5-oxopyrrolidin-2-yl]-1-[4-(trifluoromethoxy)phenyl]ethenyl}pyridin-2(1H)-one] |
| 3000 to 10000 | Cc1ccc(/C(=C\[C@H]2CCC(=O)N2)c2ccc(Cl)c(=O)[nH]2)c(C)c1 [Example 4-31, 3-Chloro-6-{(E)-1-(2,4-dimethylphenyl)-2-[(2R)-5-oxopyrrolidin-2-yl]ethenyl}pyridin-2(1H)-one] |
| 10 to 500 | CC(C)Oc1ccc(/C(=C\[C@H]2CCC(=O)N2)c2ccc(Cl)c(=O)[nH]2)cc1Cl [Example 4-32, 3-Chloro-6-{(E)-1-[3-chloro-4-(propan-2-yloxy)phenyl]-2-[(2R)-5-oxopyrrolidin-2-yl]ethenyl}pyridin-2(1H)-one] |
| 10 to 500 | O=C1CC[C@H](/C=C(\c2ccc(SC3CCCC3)cc2)c2ccc(Cl)c(=O)[nH]2)N1 [Example 4-33, 3-Chloro-6-{(E)-1-[4-(cyclopentylsulfanyl)phenyl]-2-[(2R)-5-oxopyrrolidin-2-yl]ethenyl}pyridin-2(1H)-one] |
| 500 to 3000 | Cc1cc(/C(=C\[C@H]2CCC(=O)N2)c2ccc(Cl)c(=O)[nH]2)ccc1SC1CC1 [Example 4-34, 3-Chloro-6-{(E)-1-[4-(cyclopropylsulfanyl)-3-methylphenyl]-2-[(2R)-5-oxopyrrolidin-2-yl]ethenyl}pyridin-2(1H)-one] |
| 500 to 3000 | CSc1ccc(/C(=C\[C@H]2CCC(=O)N2)c2ccc(Cl)c(=O)[nH]2)cc1C(F)(F)F [Example 4-35, 3-Chloro-6-{(E)-1-[4-(methylsulfanyl)-3-(trifluoromethyl)phenyl]-2-[(2R)-5-oxopyrrolidin-2-yl]ethenyl}pyridin-2(1H)-one] |
| 3000 to 10000 | O=C1CC[C@H](/C=C(\c2cccc(SC3CC3)c2)c2ccc(Cl)c(=O)[nH]2)N1 [Example 4-36, 3-Chloro-6-{(E)-1-[3-(cyclopropylsulfanyl)phenyl]-2-[(2R)-5-oxopyrrolidin-2-yl]ethenyl}pyridin-2(1H)-one] |
| 10 to 500 | O=C1CC[C@H](/C=C(\c2ccc(SC3CC3)cc2)c2ccc(Cl)c(=O)[nH]2)N1 [Example 4-37, 3-Chloro-6-{(E)-1-[4-(cyclopropylsulfanyl)phenyl]-2-[(2R)-5-oxopyrrolidin-2-yl]ethenyl}pyridin-2(1H)-one] |
| 10 to 500 | CSc1ccc(/C(=C\[C@H]2CCN(C(C)=O)C2)c2ccc(C3CC3)c(=O)[nH]2)cc1 [Example 4-39, 6-{(E)-2-[(3R)-1-Acetylpyrrolidin-3-yl]-1-[4-(methylsulfanyl)phenyl]ethenyl}-3-cyclopropylpyridin-2(1H)-one] |
| 500 to 3000 | CCc1ccc(/C(=C\[C@H]2CCN(C(C)=O)C2)c2ccc(Cl)c(=O)[nH]2)cc1 [Example 4-40, 6-[(E)-2-[(3R)-1-Acetylpyrrolidin-3-yl]-1-(4-ethylphenyl)ethenyl]-3-chloropyridin-2(1H)-one] |
| 500 to 3000 | CCOc1ccc(/C(=C\[C@H]2CCN(C(C)=O)C2)c2ccc(Cl)c(=O)[nH]2)cc1Cl [Example 4-41, 6-[(E)-2-[(3R)-1-Acetylpyrrolidin-3-yl]-1-(3-chloro-4-ethoxyphenyl)ethenyl]-3-chloropyridin-2(1H)-one] |
| 3000 to 10000 | CSc1ccc(/C(=C\C2CCN(C(C)=O)CC2)c2ccc(C3CC3)c(=O)[nH]2)cc1 [Example 4-42, 6-{(E)-2-(1-Acetylpiperidin-4-yl)-1-[4-(methylsulfanyl)phenyl]ethenyl}-3-cyclopropylpyridin-2(1H)-one] |
| 3000 to 10000 | CC(=O)N1CCC(/C=C(\c2ccc(S(C)(=O)=O)cc2)c2ccc(C3CC3)c(=O)[nH]2)CC1 [Example 4-43, 6-{(E)-2-(1-Acetylpiperidin-4-yl)-1-[4-(methylsulfonyl)phenyl]ethenyl}-3-cyclopropylpyridin-2(1H)-one] |
| 500 to 3000 | CSc1ccc(/C(=C\C2CN(C(C)=O)C2)c2ccc(C3CC3)c(=O)[nH]2)cc1 [Example 4-44, 6-{(E)-2-(1-Acetylazetidin-3-yl)-1-[4-(methylsulfanyl)phenyl]ethenyl}-3-cyclopropylpyridin-2(1H)-one] |
| 10 to 500 | CSc1ccc(/C(=C\[C@H]2CCC(=O)N2C)c2ccc(C3CC3)c(=O)[nH]2)cc1 [Example 4-45, 3-Cyclopropyl-6-{(E)-2-[(2R)-1-methyl-5-oxopyrrolidin-2-yl]-1-[4-(methylsulfanyl)phenyl]ethenyl}pyridin-2(1H)-one] |
| 500 to 3000 | CCc1ccc(/C(=C\[C@H]2CCCN2C(C)=O)c2ccc(Cl)c(=O)[nH]2)cc1 [Example 4-47, 6-[(E)-2-[(2R)-1-Acetylpyrrolidin-2-yl]-1-(4-ethylphenyl)ethenyl]-3-chloropyridin-2(1H)-one] |
| 500 to 3000 | CCOc1ccc(/C(=C\[C@H]2CCC(=O)N2)c2ccc(Cl)c(=O)[nH]2)cc1 [Example 4-48, 3-Chloro-6-{(E)-1-(4-ethoxyphenyl)-2-[(2R)-5-oxopyrrolidin-2-yl]ethenyl}pyridin-2(1H)-one] |
| 500 to 3000 | CCOc1ccc(/C(=C\[C@H]2CCC(=O)N2)c2ccc(Cl)c(=O)[nH]2)cc1F [Example 4-49, 3-Chloro-6-{(E)-1-(4-ethoxy-3-fluorophenyl)-2-[(2R)-5-oxopyrrolidin-2-yl]ethenyl}pyridin-2(1H)-one] |
| 500 to 3000 | CCOc1ccc(/C(=C\[C@H]2CCC(=O)N2)c2ccc(Cl)c(=O)[nH]2)cc1C [Example 4-50, 3-Chloro-6-{(E)-1-(4-ethoxy-3-methylphenyl)-2-[(2R)-5-oxopyrrolidin-2-yl]ethenyl}pyridin-2(1H)-one] |
| 500 to 3000 | CCOc1ccc(/C(=C\[C@H]2CCC(=O)N2)c2ccc(Cl)c(=O)[nH]2)cc1C(F)(F)F [Example 4-51, 3-Chloro-6-{(E)-1-[4-ethoxy-3-(trifluoromethyl)phenyl]-2-[(2R)-5-oxopyrrolidin-2-yl]ethenyl}pyridin-2(1H)-one] |
| 500 to 3000 | Cc1cc(/C(=C\[C@H]2CCC(=O)N2)c2ccc(Cl)c(=O)[nH]2)ccc1OCCCO [Example 4-52, 3-Chloro-6-{(E)-1-[4-(3-hydroxypropoxy)-3-methylphenyl]-2-[(2R)-5-oxopyrrolidin-2-yl]ethenyl}pyridin-2(1H)-one] |
| 10 to 500 | CS(=O)(=O)c1ccc(/C(=C\[C@H]2CCC(=O)N2)c2ccc(C3CC3)c(=O)[nH]2)cc1 [Example 4-53, 3-Cyclopropyl-6-{(E)-1-[4-(methylsulfonyl)phenyl]-2-[(2R)-5-oxopyrrolidin-2-yl]ethenyl}pyridin-2(1H)-one] |
| 10 to 500 | Cc1cc(/C(=C\[C@H]2CCC(=O)N2)c2ccc(C3CC3)c(=O)[nH]2)ccc1S(=O)(=O)C1CC1 [Example 4-54, 3-Cyclopropyl-6-{(E)-1-[4-(cyclopropylsulfonyl)-3-methylphenyl]-2-[(2R)-5-oxopyrrolidin-2-yl]ethenyl}pyridin-2(1H)-one] |
| 10 to 500 | Cc1cc(/C(=C\[C@H]2CCC(=O)N2)c2ccc(Cl)c(=O)[nH]2)ccc1S(=O)(=O)C1CC1 [Example 4-55, 3-Chloro-6-{(E)-1-[4-(cyclopropylsulfonyl)-3-methylphenyl]-2-[(2R)-5-oxopyrrolidin-2-yl]ethenyl}pyridin-2(1H)-one] |
| 500 to 3000 | CS(=O)(=O)c1ccc(/C(=C\[C@H]2CCC(=O)N2)c2ccc(Cl)c(=O)[nH]2)cc1C(F)(F)F [Example 4-56, 3-Chloro-6-{(E)-1-[4-(methylsulfonyl)-3-(trifluoromethyl)phenyl]-2-[(2R)-5-oxopyrrolidin-2-yl]ethenyl}pyridin-2(1H)-one] |
| 10 to 500 | O=C1CC[C@H](/C=C(\c2ccc(S(=O)(=O)C3CC3)cc2)c2ccc(Cl)c(=O)[nH]2)N1 [Example 4-57, 3-Chloro-6-{(E)-1-[4-(cyclopropylsulfonyl)phenyl]-2-[(2R)-5-oxopyrrolidin-2-yl]ethenyl}pyridin-2(1H)-one] |

| SMILES | EC50 [nM] |
| --- | --- |
| O=C1CC[C@H](/C=C(\c2ccc(OCCCCO)c(Cl)c2)c2ccc(Cl)c(=O)[nH]2)N1 [Example 4-38, 3-Chloro-6-{(E)-1-[3-chloro-4-(4-hydroxybutoxy)phenyl]-2-[(2R)-5-oxopyrrolidin-2-yl]ethenyl}pyridin-2(1H)-one] | 10 to 500 |
